Test results: ChEMBL document CHEMBL5352404, “Synthesis and evaluation of novel furanones as biofilm inhibitors in opportunistic human pathogens” (Eur J Med Chem, 2022)
Active and inactive are the calls of the source. No cut-off for these calls is given here.

Tests used:
[1] = tested on: Stenotrophomonas maltophilia; assay: Antibacterial activity against Stenotrophomonas maltophilia K279a assessed as bacterial growth inhibition at 50 uM incubated for 20 hrs by broth microdilution method; assay type: functional, organism-based
Candida albicans [2] = assay: Inhibition of biofilm formation in developmental phase of Candida albicans M2396 at 50 uM incubated for 24 hrs by crystal violet staining based analysis relative to control; assay type: functional
[3] = Toxicity in Galleria mellonella larvae assessed as reduction in animal survival at 100 uM
Pseudomonas aeruginosa [4] = assay: Inhibition of biofilm formation in eYFP labeled Pseudomonas aeruginosa PAO1 at 50 uM incubated for 24 hrs by crystal violet staining based analysis relative to control; assay type: functional
Staphylococcus aureus = assay: Inhibition of biofilm formation in Staphylococcus aureus Newman ATCC 25904 at 50 uM incubated for 24 hrs by crystal violet staining based assay relative to control; assay type: functional
Pseudomonas aeruginosa [5] = assay: Antibacterial activity against Pseudomonas aeruginosa PAR7244 infected in Galleria mellonella larvae assessed as increase in survival rate at 50 uM measured every 24 hrs (reference value: 48 %); assay type: functional
Pseudomonas aeruginosa [6] = assay: Antibacterial activity against Pseudomonas aeruginosa PAR7244 assessed as bacterial growth inhibition at 50 uM incubated for 20 hrs by broth microdilution method; assay type: functional, organism-based
[7] = Toxicity in Galleria mellonella larvae assessed as signs of melanization at 100 uM
[8] = tested on: Stenotrophomonas maltophilia; assay: Inhibition of biofilm formation in Stenotrophomonas maltophilia K279a at 50 uM incubated for 24 hrs by crystal violet staining based analysis; assay type: functional, organism-based
Candida albicans [9] = assay: Inhibition of biofilm formation in RFP-expressing Candida albicans M2396 at 50 uM incubated for 24 hrs by crystal violet staining based analysis relative to control; assay type: functional
HK-2 = assay: Cytotoxicity against human HK-2 cells assessed as reduction in cell survival at 50 uM incubated for 24 to 48 hrs by MTT assay; assay type: toxicity, cell-based; settings: hk-2, 50 µM, time 24-48 hrs
Pseudomonas aeruginosa [10] = assay: Antibacterial activity against eYFP labeled Pseudomonas aeruginosa PAO1 assessed as inhibition of bacterial growth at 50 uM incubated for 20 hrs by broth microdilution method relative to control; assay type: functional; design: scale not given: the % may be the effect or the level left
Candida albicans [11] = assay: Antibiofilm activity against Candida albicans M2396/Pseudomonas aeruginosa PA01 dual-species at 50 uM incubated for 24 hrs by confocal laser-scanning microscopy; assay type: functional, organism-based
Salmonella typhimurium [12] = assay: Antibacterial activity against Salmonella enterica subsp. enterica serovar Typhimurium assessed as bacterial growth inhibition at 50 uM incubated for 20 hrs by broth microdilution method; assay type: functional, organism-based
Candida albicans [13] = assay: Antibiofilm activity against Candida albicans M2396 at 50 uM incubated for 24 hrs by confocal laser-scanning microscopy; assay type: functional, organism-based
Salmonella typhimurium [14] = assay: Antibiofilm activity against Salmonella enterica subsp. enterica serovar Typhimurium assessed as reduction in biofilm formation at 50 uM incubated for 24 hrs by crystal violet staining based assay relative to control; assay type: functional; design: scale not given: the % may be the effect or the level left
Pseudomonas aeruginosa [15] = assay: Antibiofilm activity against Pseudomonas aeruginosa PAO1 at 50 uM incubated for 24 hrs by confocal laser-scanning microscopy; assay type: functional, organism-based
Escherichia coli [16] = assay: Antibacterial activity against Escherichia coli ATCC 9637 assessed as bacterial growth inhibition at 50 uM incubated for 20 hrs by broth microdilution method relative to control; assay type: functional; design: scale not given: the % may be the effect or the level left
Pseudomonas aeruginosa [17] = assay: Antibiofilm activity against Pseudomonas aeruginosa PAR7244 assessed as reduction in biofilm formation at 50 uM incubated for 24 hrs by crystal violet staining based analysis relative to control; assay type: functional; design: scale not given: the % may be the effect or the level left
Candida albicans [18] = assay: Antifungal activity against RFP-expressing Candida albicans M2396 assessed as fungal growth inhibition at 50 uM incubated for 20 hrs by microplate reader analysis; assay type: functional, organism-based
Escherichia coli [19] = assay: Antibiofilm activity against Escherichia coli ATCC 9637 assessed as reduction in biofilm formation at 50 uM incubated for 24 hrs by crystal violet staining based assay; assay type: functional, organism-based
Pseudomonas aeruginosa [20] = assay: Antibiofilm activity against Pseudomonas aeruginosa PAR7244 assessed as reduction in biofilm formation at 50 uM incubated for 24 hrs by crystal violet staining based analysis; assay type: functional, organism-based
Candida albicans [21] = assay: Inhibition of biofilm formation in Candida albicans M2396 at 50 uM incubated for 24 hrs by crystal violet staining based analysis; assay type: functional, organism-based
Candida albicans [22] = assay: Inhibition of biofilm formation in developmental phase of Candida albicans M2396 at 50 uM incubated for 24 hrs by crystal violet staining based analysis; assay type: functional, organism-based

With `COc1cccc(C(=C2C=CC(=O)O2)c2cccc(OC)c2)c1` the Activity [1] was “inactive”, the inhibition at 50 µM (Candida albicans [2]) was 71% and the Activity [3] was “Non-Toxic”. It also gave an inhibition at 50 µM (Pseudomonas aeruginosa [4]) of 44%, an inhibition at 50 µM (Staphylococcus aureus) of 30% and a survival at 50 µM (Pseudomonas aeruginosa [5]) of 72%. The Activity (Pseudomonas aeruginosa [6]) was “inactive”, the Activity [7] was “Non-Toxic” and the inhibition [8] was “inactive”. For the same molecule, the inhibition at 50 µM (Candida albicans [9]) was 53%, the Activity (HK-2) was “Non-Toxic” and the Activity (Pseudomonas aeruginosa [10]) was “<=5%”.

In the case of `O=C1OC(=C(c2ccccc2)c2ccccc2)C=C1Br`, the Activity [1] is reported as “inactive”, the Activity (Pseudomonas aeruginosa [6]) is reported as “inactive” and the inhibition [8] is reported as “inactive”. For the same molecule, the Activity (Pseudomonas aeruginosa [10]) was “<=5%”.

In the case of `COc1cccc(/C(Br)=C2\C=CC(=O)O2)c1`, the Activity [1] is reported as “inactive”, the Activity (Pseudomonas aeruginosa [6]) is reported as “inactive” and the inhibition [8] is reported as “inactive”. The Activity (Pseudomonas aeruginosa [10]) was “<=5%”.

With `O=C1C=C/C(=C(/Br)c2ccccc2)O1` the Activity [1] was “inactive”, the Activity (Pseudomonas aeruginosa [6]) was “inactive” and the inhibition [8] was “inactive”. The Activity (Pseudomonas aeruginosa [10]) was “<=5%”.

With `O=C1C=C/C(=C(/Br)c2ccc(C(F)(F)F)cc2)O1` the Activity [1] was “inactive”, the inhibition at 50 µM (Candida albicans [2]) was 85% and the Activity (Pseudomonas aeruginosa [6]) was “inactive”. The inhibition [8] was “inactive”, the inhibition at 50 µM (Candida albicans [9]) was 75% and the Activity (Pseudomonas aeruginosa [10]) was “<=5%”.

For `O=C1C=C/C(=C(\Cl)I)O1`, the Activity (Candida albicans [11]) was “Active”, the Activity [1] was “inactive” and the inhibition at 50 µM (Candida albicans [2]) was 52%. The Activity (Salmonella typhimurium [12]) was “Active”, the inhibition at 50 µM (Pseudomonas aeruginosa [4]) was 51% and the Activity (Pseudomonas aeruginosa [6]) was “inactive”. The Activity (Candida albicans [13]) was “Active”, the Activity (Salmonella typhimurium [14]) was 59% and the Activity (Pseudomonas aeruginosa [15]) was “Active”. The Activity (Escherichia coli [16]) was 28%, the inhibition [8] was “inactive” and the inhibition at 50 µM (Candida albicans [9]) was 92%. For the same molecule, the Activity (Pseudomonas aeruginosa [10]) was “<=5%”.

With `O=C1C=C/C(=C(/Br)c2ccc([N+](=O)[O-])cc2)O1` the Activity [1] was “inactive”, the Activity (Pseudomonas aeruginosa [6]) was “inactive” and the inhibition [8] was “inactive”. The Activity (Pseudomonas aeruginosa [10]) was “<=5%”.

For `O=C1C=CC(=C(Cl)Cl)O1`, the Activity [1] was “inactive”, the Activity [3] was “Non-Toxic” and the inhibition at 50 µM (Pseudomonas aeruginosa [4]) was 52%. The Activity (Pseudomonas aeruginosa [6]) was “inactive”, the Activity [7] was “Non-Toxic” and the inhibition [8] was “inactive”. For the same molecule, the inhibition at 50 µM (Candida albicans [9]) was 21% and the Activity (Pseudomonas aeruginosa [10]) was “<=5%”.

For `O=C1C=CC(=C(c2ccccc2)c2ccccc2)O1`, the Activity [1] was “inactive”, the Activity (Pseudomonas aeruginosa [6]) was “inactive” and the inhibition [8] was “inactive”. For the same molecule, the Activity (Pseudomonas aeruginosa [10]) was “<=5%”.

In the case of `COc1ccc(/C(Cl)=C2\C=CC(=O)O2)cc1`, the Activity [1] is reported as “inactive”, the Activity (Pseudomonas aeruginosa [6]) is reported as “inactive” and the inhibition [8] is reported as “inactive”. For the same molecule, the Activity (Pseudomonas aeruginosa [10]) was “<=5%”.

For `CC1=CC(=O)OC1=C(Br)Br`, the Activity [1] was “inactive”, the Activity [3] was “Non-Toxic” and the inhibition at 50 µM (Pseudomonas aeruginosa [4]) was 70%. The Activity (Pseudomonas aeruginosa [6]) was “inactive”, the Activity [7] was “Non-Toxic” and the Activity (Pseudomonas aeruginosa [17]) was 44%. The inhibition [8] was “inactive”, the inhibition at 50 µM (Candida albicans [9]) was 38% and the Activity (HK-2) was “Toxic”. It also gave an Activity (Pseudomonas aeruginosa [10]) of 11%.

In the case of `O=C1C=C/C(=C/Br)O1`, the Activity (Candida albicans [11]) is reported as “Active”, the Activity (Candida albicans [18]) is reported as “Active” and the Activity [1] is reported as “inactive”. The Activity (Escherichia coli [19]) was “inactive”, the Activity [3] was “Non-Toxic” and the inhibition at 50 µM (Pseudomonas aeruginosa [4]) was 75%. For the same molecule, the Activity (Pseudomonas aeruginosa [6]) was “inactive”, the Activity (Candida albicans [13]) was “Active” and the Activity (Pseudomonas aeruginosa [20]) was “inactive”. For the same molecule, the inhibition (Candida albicans [21]) was “Active”, the Activity [7] was “Non-Toxic” and the inhibition [8] was “inactive”. The inhibition (Candida albicans [22]) was “inactive”, the Activity (HK-2) was “Toxic” and the Activity (Pseudomonas aeruginosa [10]) was “<=5%”.

For `O=C1C=CC(=C(Br)Br)O1`, the Activity (Candida albicans [11]) was “Active”, the Activity (Candida albicans [18]) was “Active” and the Activity [1] was “inactive”. For the same molecule, the Activity (Salmonella typhimurium [12]) was “Active”, the Activity (Escherichia coli [19]) was “inactive” and the Activity (Pseudomonas aeruginosa [6]) was “inactive”. The Activity (Candida albicans [13]) was “Active”, the Activity (Salmonella typhimurium [14]) was 67% and the inhibition (Candida albicans [21]) was “Active”. For the same molecule, the inhibition [8] was “inactive”, the inhibition (Candida albicans [22]) was “Active” and the Activity (Pseudomonas aeruginosa [10]) was “<=5%”.

For `COc1ccc(/C(Br)=C2\C=CC(=O)O2)cc1`, the Activity [1] was “inactive”, the Activity (Pseudomonas aeruginosa [6]) was “inactive” and the inhibition [8] was “inactive”. The Activity (Pseudomonas aeruginosa [10]) was “<=5%”.

In the case of `O=C1C=CC(=C(c2cccs2)c2cccs2)O1`, the Activity [1] is reported as “inactive”, the Activity (Pseudomonas aeruginosa [6]) is reported as “inactive” and the inhibition [8] is reported as “inactive”. The Activity (Pseudomonas aeruginosa [10]) was “<=5%”.

In the case of `O=C1C=C/C(=C(/Cl)c2ccccc2)O1`, the Activity [1] is reported as “inactive”, the Activity (Pseudomonas aeruginosa [6]) is reported as “inactive” and the inhibition [8] is reported as “inactive”. The Activity (Pseudomonas aeruginosa [10]) was “<=5%”.
